According to PMC8909594, “Direct Interaction of Mitochondrial Cytochrome c Oxidase with Thyroid Hormones: Evidence for Two Binding Sites” (Cells, 2022):
“And” between values parts separate entries of the source, which are not always exact repeats. Identical values can stand only once. “Also recorded” adds a separate entry of the source. Like-named read-outs stand apart in the source and are kept apart here.

How the values were obtained:
mitochondrial CcO = test system: mitochondrial CcO; parameters: method as in PMID 8013649; conditions: 0.2 μM enzyme; cited from earlier work
[1] = test system: T1, cytochrome c oxidase (CcO); assay: Peroxidase activity of CcO (ferrocyanide peroxidation); format: biochemical, Bos taurus; conditions: for rate of peroxidase reaction: 0.5 mM hormone, control 0.19 e−/s, error about 10%
T1 construct: Cytochrome c oxidase (CcO) was purified from heart mitochondria of Bos taurus; from tissue; host or cells: bovine heart mitochondria
Experimental: To obtain a redox buffer with Em ≈ 420 mV, equal amounts of ferri- and ferrocyanide were mixed. To facilitate the interaction of ferrocyanide with CcO, 0.2 μM cytochrome c was present.
Peroxidation of ferrocyanide (0.2 mM) was monitored in the presence of 0.6 μM CcO. […] Trace 1, black = control; trace 2, red = the experiment in the presence of 1 mM T4; trace 3, blue = 1 mM T4 added in the course of the experiment, as indicated.

[2] = test system: T2, xanthine oxidase from bovine milk; assay: Superoxide formation by xanthine oxidase oxidizing hypoxanthine (test for superoxide dismutase activity); format: biochemical; conditions: hypoxanthine 50 μM, XOx 0.015 units/mL; 500 μM T4; SOD 20 μg/mL
T2 construct: xanthine oxidase from bovine milk; purchased Sigma-Aldrich; host or cells: bovine milk
From the text: The conditions were adjusted so that the rate of WST reduction was approximately the same as in panel (A).

CcO in proteoliposomes = test system: T3, CcO in proteoliposomes; assay: Ferrocytochrome c oxidation by CcO in proteoliposomes; format: biochemical, Bos taurus
T3 construct: Cytochrome c oxidase (CcO) was purified from heart mitochondria of Bos taurus; from tissue; host or cells: bovine heart mitochondria
Experimental: CcO reconstruction into phospholipid vesicles.
Cytochrome c was reduced beforehand by dithionite.
Figure 2 Inhibitory effect of thyroid hormones on the oxidase activity of the membrane-incorporated CcO. […] Proteoliposomes were added to the experimental medium up to 26 nM CcO. The oxidase reaction was initiated by addition of the respiratory substrate. Other details are as in Figure 1B,D. (D) T3-induced inhibition of ferrocytochrome c oxidation by CcO in proteoliposomes. […] Other conditions are as in panel (A) except that proteoliposomes were added to the medium up to 3.25 nM CcO and pre-incubated for 30 min before adding the respiratory substrate. […] Mitochondria were suspended in the experimental medium up to 0.8 mg of protein/mL. Other details are as in Figure 1B,D. (F) Inhibitory effect of T4 on CcO oxidase activity in SMP obtained from bovine heart mitochondria. The conditions were essentially as in panel (E) except that the CcO concentration was 20 nM.

[3] = test system: cytochrome c oxidase (electron transfer from heme a to heme a3); assay: Level and kinetics of heme a / heme a3 reduction in CcO; conditions: pH 8.0, 5 μM RuAm, 5 mM ascorbate
Experimental: The kinetics of spectral changes were monitored on spectrophotometer SLM Aminco DW-2000 (SLM Instruments, Urbana, IL, USA) in dual-wavelength mode.
The oxidase reaction was carried out using ascorbate (as an electron source) in combination with the redox mediators RuAm and TMPD. The reduction of CcO was monitored spectrophotometrically.
The total reduction level of hemes a and a3 was registered. […] The other conditions were as in panel (A) except that 0.1 mM TMPD was used instead of RuAm.

[4] = target: mitochondrial cytochrome c oxidase (CcO) (Bos taurus, UniProt P00426); assay: Superoxide generation by CcO in excess H2O2 (WST-1 reduction)
Experimental: The reaction of superoxide generation catalyzed by CcO in the presence of excess hydrogen peroxide was assayed in the basic medium, pH 7.6 by the classic method [27], monitoring the superoxide dismutase-sensitive reduction of tetrazolium salts to formazan.
Addition of 0.4 µM T4 is indicated. CcO was added up to 0.5 μM to the experimental medium, supplemented with 0.1 mM WST-1. The reaction was initiated by addition of 4 mM H2O2 (indicated by the arrow). […] Conditions of the measurements are as in panel (A).

[5] = test system: cytochrome c oxidase (CcO); assay: Catalase activity of CcO (oxygen release from H2O2); conditions: higher hormone concentration (curve 4, 1 mM)
Experimental: The catalase activity of CcO was detected by a Clark-type electrode in the presence of excess hydrogen peroxide, in 30 mM potassium-phosphate buffer, pH 7.1 supplemented with 2 mM EDTA and 0.05% DM, as described in [26].

[6] = target: T4, CcO in SMP obtained from bovine heart mitochondria (Bos taurus, UniProt P00396+P68530); assay: CcO oxidase activity in bovine heart submitochondrial particles (SMP); format: biochemical
T4 construct: Then, CcO in the native mitochondrial membrane was investigated; from tissue; host or cells: bovine heart submitochondrial particles
Experimental: Preparation of bovine heart submitochondrial particles (SMP). The heavy fraction of bovine heart mitochondria was suspended in 40 mL of 0.3 M sucrose supplemented with 5 mM MgSO4, 1 mM succinate, 1 mM ATP and 10 mM Hepes, pH 8.0. […] Mitochondrial debris was removed by centrifugation for 12 min at 15,000 rpm (Beckman JA-20, Brea, CA, USA). SMP were precipitated from supernatant at 100,000 g for 1 h, washed by 0.3 M sucrose with 10 mM Hepes, pH 7.5 and precipitated as previously described. The final precipitate was suspended in a small volume of the same buffer and frozen. To determine the CcO concentration in the sample, a small amount of SMP was solubilized in 50 mM Hepes/Tris buffer, pH 7.6 containing 1% DM.

[7] = test system: T5, oxidized cytochrome c oxidase (CcO); assay: Formation of CcO oxoferryl intermediates FI-607 and FII-580 with H2O2 (titration, stopped-flow); format: biochemical, Bos taurus
T5 construct: Cytochrome c oxidase (CcO) was purified from heart mitochondria of Bos taurus; from tissue; host or cells: bovine heart mitochondria
Experimental: Stopped-flow experiments were performed using a stopped-flow spectrophotometer (Applied Photophysics SX-20, Leatherhead, UK) operated in the diode array mode, using a 20-μL cell with a 1-cm optical pathway.
Oxoferryl intermediates’ formation was monitored using stopped-flow techniques. CcO in the basic medium, pH 8.1 supplemented with 0.1% DM, 0.05 mM ferricyanide and when necessary, T4 was rapidly mixed with an equal volume of the same buffer containing H2O2.
We carried out such a titration to evaluate the effects of thyroid hormones on the equilibrium of oxoferryl intermediates.
Figure 6 Effect of T4 on the formation of CcO oxoferryl intermediates during the reaction with H2O2. The reaction was followed using a diode array spectrophotometer. […] (A, B) Kinetics of the oxoferryl intermediates’ formation. […] (A) Control; (B) CcO was pre-incubated with 0.5 mM T4 until mixing.

[8] = target: CcO incorporated into azolectin vesicles (proteoliposomes) (Bos taurus, UniProt P00396+P68530); assay: Oxidase activity of CcO in proteoliposomes, oxygen consumption
Experimental: First, the effect of thyroid hormones on CcO incorporated into azolectin vesicles was studied. The activity was assayed in the same way as in solution except for the absence of detergent and presence of protonophore in the medium (see Section 2).

[9] = target: T6, solubilized cytochrome c oxidase (CcO) from bovine heart mitochondria (Bos taurus, UniProt P00396+P68530); assay: Oxidase activity of solubilized CcO, oxygen consumption (Clark-type electrode); format: biochemical; conditions: for Kd: read-out: Kc, dissociation constant of the DM-CcO complex
T6 construct: Cytochrome c oxidase (CcO) was purified from heart mitochondria of Bos taurus; from tissue; host or cells: bovine heart mitochondria
From the text: Preparations. Cytochrome c oxidase (CcO) was purified from heart mitochondria of Bos taurus. […] CcO was isolated according to a modified method of Fowler et al. [21] described previously [22].

[10] = target: solubilized CcO from mitochondria; conditions: read-out: Kc (dissociation constant for DM), cited from earlier work

N[C@@H](Cc1cc(I)c(Oc2ccc(O)cc2)c(I)c1)C(=O)O [T2, 3,5-diiodo-thyronine]
concentration from which effects of T2 start (mitochondrial CcO): 10^−7 M
rate of peroxidase reaction [1]: 0.21 e^−/s

superoxide dismutase: superoxide dismutase from bovine erythrocytes, control blocking WST reduction
effect on the rate of dye (WST) reduction [2]: completely blocked

N[C@@H](Cc1cc(I)c(Oc2ccc(O)c(I)c2)c(I)c1)C(=O)O [T3, L-3,5,3′-triiodide-thyronine]
time of enzyme activity after which inhibition develops (CcO in proteoliposomes; 0.5 mM T3 (~450 turnovers)): 10 s
decrease in the activity compared to the control (CcO in proteoliposomes; 0.5 mM T3, pre-incubation 30 min, 3.25 nM CcO): approximately twofold decrease
increase of steady-state level of heme a reduction over control ([3]; 1 mM hormone): ~ 75%
increase of steady-state level of heme a reduction over control ([3]; 2 mM hormone): ~ 115%

N[C@@H](Cc1cc(I)c(Oc2cc(I)c(O)c(I)c2)c(I)c1)C(=O)O [T4, L-3,5,3′,5′tetraiodo-thyronine]
Ki [4]: 0.3 µM
drop of the rate of WST-1 reduction (superoxide production) ([4]; 0.4 μM T4): drops threefold
suppression of catalase activity [5]: 10–20%
extent of inhibition [6]: complete inhibition
Ki ([6]; 20 nM CcO): 2200 ± 200 µM
deviation of FI-607 (lower) and FII-580 (higher) concentration from control ([7]; 0.5 mM T4, 15 s after mixing): about 10%
acceleration of formation of FII-580 (form 580) ([7]; 0.5 mM hormone): 23% and 20–25%
decrease in the quasi-stationary concentration ratio [FI-607]/[FII-580] vs control ([7]; 0.5 mM hormone, titration of oxidized CcO with peroxide): 15–25%
Ki [8]: 310 µM
decrease of the rate of oxygen consumption ([9]; […] T4, 20 nM CcO): approximately two times
extent of inhibition of enzyme activity ([9]; lowest tested DM concentrations (0.02% and 0.05%)): 70–80%
Ki ([9]; oxygen consumption, pH 7.6, 25 °C, from linear dependence of Ki(app) on [DM] 0.4–10 mM, DM=0, read-out: true inhibition constant Ki (in the absence of DM)): ~100 µM and 100 µM
Ki ([9]; solubilized enzyme, Figure 1C,E, read-out: Ki): ~100 µM
effect on the rate of dye (WST) reduction [2]: does not affect the rate of dye reduction
increase of steady-state level of heme a reduction over control ([3]; 1 mM hormone): ~ 50%
rate of peroxidase reaction [1]: 0.22 e^−/s
effect on the rate of ferrocyanide peroxidation ([1]; 1 mM T4, 0.6 μM CcO, 4 mM H2O2): does not noticeably change; also recorded: complete resistance

CCCCCCCCCCCCO[C@@H]1O[C@H](CO)[C@@H](O[C@H]2O[C@H](CO)[C@@H](O)[C@H](O)[C@H]2O)[C@H](O)[C@H]1O [DM, dodecyl-maltoside]
Kd ([9]; from competition with T3 (T3=0)): ~1120 µM
Kd ([9]; from competition with T4 (T4=0)): ~1100 µM
Kd ([10]; from study of CcO inhibition by Triton X-100): 1200 µM
Kd ([10]; from study of CcO inhibition by estradiol): 1470 µM
Kd ([10]; from study of CcO inhibition by testosterone): 1300 µM
